According to patent US20220098197A1, “SALTS OF HETEROCYCLIC COMPOUND AND USE THEREOF” (priority 2019, published 2022):

What was measured:
RAW264.7 macrophages = assay: Cell viability (MTT) assay with LPS/PGD2, RAW264.7; format: cell-based, mouse
Experimental: The cell lines of RAW 264.7 macrophages and mouse leukemia mononuclear macrophages were purchased from ATCC (Manassas, Va.), and cultured in RPMI-1640 medium containing penicillin (100 U/ml), streptomycin (100 μg/ml) and 10% fetal bovine serum. RAW264.7 macrophage is an excellent model for screening anti-inflammatory drugs and evaluating the inhibitor pathways that stimulated the production of pro-inflammatory cytokines and enzymes. MTT was used to determine the cytotoxicity of CT-NA alone and its combination with PGD2 and LPS on RAW264.7 macrophages and isolated peritoneal macrophages according to the manufacturer's protocol. Briefly, RAW 264.7 macrophages were plated in a 96-well plate at a concentration of 4×10^5 cells/ml for 12 hrs, and then exposed to CT-NA (0-200 μM) at 37° C. for 1 hour. Next, RAW 264.7 macrophages were further exposed to LPS (100 ng/ml) and PGD2 (10 μM) for 24 hrs, and then treated with MTT (5 mg/ml) at 37° C. for 4 hrs. Then, the supernatant of each well was replaced with DMSO (200 μl/well), and the absorbance was measured at 570 nm.

[1] = Stability test (influencing factors: light, high temperature, high humidity); format: physicochemical
Experimental: Test process: An appropriate amount of each test sample was placed on a clean watch glass without a lid and then placed under the conditions of light 4500 lx±500 lx, high temperature of 60° C., high humidity of 92.5% RH for 5 days and 10 days, respectively. The properties and related substances were determined and the results were compared with the results at day 0 to observe the stability.
The test method for related substances was as follows.
Preparation of test sample solution: About 10 mg of each test sample was placed in a 10 ml volumetric flask, and 50% acetonitrile aqueous solution was added to dissolve sample, and diluted to the mark, shaken well, and filtered to obtain the test sample solution. A precise amount of 10 μl of the test sample solution was taken and injected according to the above chromatographic method, and the maximum single impurity and total impurity were calculated according to the area normalization method.

[2] = tested on: NF-κB signalling pathway in RAW264.7 macrophages; assay: Western blotting of NF-κB signalling pathway, RAW264.7; format: cell-based, mouse; conditions: CT-NA 0.5, 1.0, 10, or 100 μM, LPS (100 ng/ml)
Experimental: The method for total protein extraction and Western blotting determination was as follows. The lung tissue was homogenized in RIPA buffer (0.5M Tris-HCl, pH 7.4, 1.5M NaCl, 2.5% deoxycholic acid, 10% NP-40, 10 mM EDTA) containing protease and phosphatase inhibitors (Sigma-Aldrich, St. Louis, Mo.). RAW264.7 macrophages were seeded into two 6-well plates at 70-80% confluence. After overnight starvation with serum-free RPMI-1640 medium, RAW264.7 macrophages were pretreated with CT-NA (0.5, 1, 10 and 100 μM) for 1 hour. Thereafter, one 6-well plate was treated with LPS (100 ng/ml) for 1 hour, and the other was treated with PGD2 (10 μM) for 1 hour. After washing three times with PBS, the cells were directly lysed for 30 minutes with shaking in RIPA buffer containing protease and phosphatase inhibitors in an ice environment. Then, the lysate was centrifuged at 12,300×g for 15 minutes at 4° C., and the supernatant was collected. […] was performed to measure protein concentration. Equal amounts of protein (30 μg) were resolved on 12% SDS-PAGE and transferred to 0.45 um polyvinylidene fluoride (PVDF) membranes (Millipore, Bedford, Mass.). The membranes were blocked with 5% (wt/vol) skimmed milk powder at room temperature for 1-2 hrs to reduce non-specific binding. […]

[3] = high temperature 60° C., Day 10
[4] = light condition 4500 lx±500 lx, Day 5
[5] = light condition 4500 lx±500 lx, Day 10

Q: What does the source list for `CN([C@@H]1CCc2c(CC(=O)[O-])c3cccnc3n2C1)S(=O)(=O)c1ccc(F)cc1.[Na+]` [Sodium salt hydrate]?
A: cytotoxicity (MTT), LPS plus CT-NA (RAW264.7 macrophages; LPS (100 ng/ml) plus CT-NA up to 100 μM): non-toxic; cytotoxicity (MTT), PGD2 plus CT-NA (RAW264.7 macrophages; PGD2 (10 μM) plus CT-NA up to 100 μM): non-toxic; stability under high temperature and high humidity conditions (in words) ([1]; 60° C., 92.5% RH, 5 and 10 days): relatively stable; maximum single impurity % ([1]; Day 0): 0.03%; property ([1]; Day 0): white powder; total impurity % ([1]; Day 0): 0.07%; maximum single impurity % ([1]; high humidity 92.5% RH, Day 5): 0.02%; property ([1]; high humidity 92.5% RH, Day 5): white powder; total impurity % ([1]; high humidity 92.5% RH, Day 5): 0.07%; maximum single impurity % ([1]; high humidity 92.5% RH, Day 10): 0.02%; property ([1]; high humidity 92.5% RH, Day 10): white powder; total impurity % ([1]; high humidity 92.5% RH, Day 10): 0.06%; maximum single impurity % ([1]; high temperature 60° C., Day 5): 0.02%; property ([1]; high temperature 60° C., Day 5): white powder; total impurity % ([1]; high temperature 60° C., Day 5): 0.07%; maximum single impurity % [1, 3]: 0.02%; property [1, 3]: white powder; total impurity % [1, 3]: 0.09%; maximum single impurity % [1, 4]: 0.06%; property [1, 4]: light yellow powder; total impurity % [1, 4]: 0.16%; maximum single impurity % [1, 5]: 0.15%; property [1, 5]: light yellow powder; total impurity % [1, 5]: 0.26%; degradation of IκBα and P65 induced by LPS [2]: strongly reversed; LPS-induced IκBα and P65 activation ([2]; dose-dependent): reduced
